US6471958B2, “Non-contracting tissue equivalent” (University of North Texas Health Science Center, priority 1998, dated 2002)
Where two headings read alike, the source gives them in different places.

Assays:
[1] = tested on: normal human skin fibroblasts
Procedure: Dermal fibroblasts were obtained as outgrowths from explanted dermal tissue, after incubation at 37° C. 5% CO2 97% humidity) in DMEM containing 10% FBS. The cells were harvested with 0.05% trypsin, 0.02% EDTA, and passaged in their respective media or used for construction of dermal and skin equivalents. For experimental treatments the cells were plated into 25 cm tissue culture flasks (T-25), 6 well tissue culture (TC) plates (9.6 cm^2/well), or 4 well TC plates (2 cm^2/well).
(§2) The cells, DEs, or tissue equivalent products, contained in TC plates, were transferred into the treatment chamber, the lids were removed, and the TC plates covered with sterile gauze. […] The treatment pressure was maintained for 90 minutes. At the conclusion, decompression was carried out slowly over a five-minute period, and the treated cultures returned to the CO2 incubator. The treatments were repeated for 2, 5, or 10 consecutive days, and a normal medium change schedule was maintained.
(§3) The cells and equivalents were incubated in 1 ml of neutral red solution (1 mg/ml in appropriate media) for 4 hours at 37° C. The effects on the cells (fibroblasts/keratinocytes) were evaluated microscopically and photographically recorded. The entry of neutral red into the cells signified that they were viable.

[2] = tested on: Fibroblasts in Dermal Eq. on Grids; conditions: 90 min/day for 10 days
Procedure: (§4) Dermal equivalents were constructed at 4° C. by mixing 8 parts collagen (Type I acid solubilized, ICN Cellagen®; 3 mg/ml), 1 part of 10×Ham's F-12 medium, 1 part buffer (200 mM HEPES, 25 mM Na2CO3 and 50 mMN NaOH) and inoculating with dermal fibroblasts (1×10^5 cells/ml at 4° C.). For experimental treatments DE were cast in 4 or 12 well tissue culture plates and were maintained at 37° C. in Ham's F-12 Medium containing 5% FBS. Fibroblasts regained their normal morphology within 48 hours, after which DE were maintained in modified Ham's F-12 Medium, changing the media every 48 hours.
as §2, §3

[3] = tested on: HUSE Product; conditions: for OUTCOME (neutral red viability): HUSE Product, 90 min/day for 10 days
Procedure: Dermal equivalents, cast in 12 well tissue culture plates, were coated with collagen VII (Collaborative Research; 12 mg collagen/cm^2). Early passage keratinocytes (1.8×10^5cells/cm^2), suspended in KGM (2 mls) were then plated onto DE. The medium was changed after 24 hours, and thereafter at 48 hour intervals. Once a confluent monolayer was formed, the DE were transferred to a wire mesh grids, elevated to the air-liquid interface, and the media was changed to modified KGM containing 1.8 mM CaCl2; once lifted (“lift date” was “Day 0”) the system was considered to be a “developing HUSE product”. The “epidermis” remained at the air-liquid interface and differentiated for the duration of the experiment, the media being changed every 3 days. The HUSE product was considered mature after 14 days of differentiation.
as §2, §3

[4] = tested on: normal human keratinocytes; conditions: for OUTCOME (neutral red viability): Keratinocytes, Continuous 12 hrs or 90 min/day for 10 days
Procedure: Human skin pieces (5 cm squares) were incubated at 4° C. in a solution of 20U/ml dispase (Collaborative Research; 5 mg collagen/cm2) in KGM (Keratinocyte Growth Medium, Clonetics Corp.), for 48 hours. The epidermis was separated from the dermis and dispersed in a solution containing 0.025% trypsin and 0.02% EDTA, by incubation at 37° C. and vigorous pipetting, to produce a single cell suspension. The resulting keratinocytes were then plated into tissue culture flasks coated with collagen VII, and cultured in KGM, a serum free defined medium at 37° C. (5% CO2, 97% humidity). […] The cells were harvested with 0.05% trypsin, 0.02% EDTA, and passaged in their respective media or used for construction of dermal and skin equivalents. For experimental treatments the cells were plated into 25 cm tissue culture flasks (T-25), 6 well tissue culture (TC) plates (9.6 cm^2/well), or 4 well TC plates (2 cm^2/well).
as §2, §3

[5] = tested on: normal human dermal fibroblasts monolayers; conditions: for cell proliferation (cell numbers): 90 min./day for ten days
Procedure: (§1) The cells, DEs, or tissue equivalent products, contained in TC plates, were transferred into the treatment chamber, the lids were removed, and the TC plates covered with sterile gauze. The treatment chamber was sealed, the oxygen (100%) was blown through slowly to expel all the air (2 min.), and the chamber brought up to the appropriate pressure over a period of five minutes. The treatment pressure was maintained for 90 minutes. At the conclusion, decompression was carried out slowly over a five-minute period, and the treated cultures returned to the CO2 incubator. The treatments were repeated for 2, 5, or 10 consecutive days, and a normal medium change schedule was maintained.

[6] = tested on: normal human keratinocyte monolayers; conditions: periodic HBO treatment
Procedure: as §1

[7] = tested on: human skin equivalent product; conditions: 90 minutes/day for 10 days
Procedure: as §1

[8] = tested on: Fibroblasts in Dermal Eq. Submerged; conditions: 90 min/day for 10 days
Procedure: as §4, §2, §3

[9] = tested on: normal human dermal fibroblasts
Procedure: Collagen production by near confluent monolayer of dermal fibroblasts was determined by measuring the incorporation of tritiated proline [3H-proline] into bacterial collagenase-sensitive protein [Postlethwaite et al., Proc. Nat. Acad. Sci. (USA) 75:871-875 (1978)] using an extensively modified method of Peterkofsky and Diegelmann, Developmental Biology 28:443-453 (1972). The wells of a six well TC plate (Falcon 3008) were seeded with 5×10^5 fibroblasts and were cultured in DMEM containing 5% FBS for 72 hr at 37° C. (humidified 5% CO2 incubator). The medium was then replaced with serum free DMEM lacking in nonessential amino acids (500 ml), and containing 5 μC L-proline[2,3-3H] (20 Ci/mM, NEN, Boston, Mass.), and the hyperbaric treatments initiated. After 48 and 120 hours, two aliquots (200 ml) of culture supernatant were removed from each well. One aliquot was used to quantitate total protein production as follows: supernatant (200 ml) was added to 0.2 M Tris/0.3 M CaCl2 buffer (pH 7.5, 70 ml), FBS (25 ml),N-ethylmaleimide (NEM, 30 ml), and a 0.75% solution of tannic acid (TA) in 50% trichloroacetic acid 9TCA) (75 ml). […] The filters, placed in scintillation vials containing 5 ml Aquasol (New England Nuclear), were chilled for 4 hr, and counted in a liquid scintillation counter.
The second aliquot of was used to quantitate the noncollagen protein as follows: supernatant (200 ml) was added to 0.2 M Tris/0.3 M CaCl2 buffer (pH 7.5, 50 ml), NEM (30 ml) and bacterial collagenase (20 ml) (Worthington Biochemical Corp., Freehold, N.J.), purified just before use by gel filtration on Sephadex G-200 to remove proteinases. […] The precipitate was collected on glass fiber filters, and the radioactivity was measured by scintillation counting.
De novo synthesized collagen by each fibroblast culture was determined by substracting the noncollagen protein from the total proteins synthesized. Samples were assaved in quadruplicate or triplicate and the data are expressed as mean epm (+SEM) and/or percent of collagen produced relative to control cultures. […]

[10] = 90 minutes, DMEM, KBM
Procedure: A method similar to that described by Rafi et al., Am. J. Med. Genetics 61:299-303 […] was used to measure the partial pressure of oxygen (pO2) dissolved in the culture medium bathing the cells. To each well of a multiwell tissue culture (TC) plate was added the appropriate culture medium to a depth of 2 mm. The TC plates were then placed in the treatment chamber, the chamber was flushed out with oxygen for five minutes and then pressurized over an additional five minute period. The pressure was maintained for 90 minutes after which time period the treatment chamber was decompressed over a period of five minutes. The TC plates were then removed from the chamber and the pO2 measurement taken within two minutes using a polarographic oxygen electrode (Diamond General Development Corporation, Ann Arbor, Mich.). Dissolution of oxygen at four different pressures was measured in three different media.

## O=O [100% O2, oxygen]
[1]; 3 hrs/day for 5 days, 320 mm Hg
  OUTCOME (neutral red viability): Non-Toxic
[1]; 3 hrs/day for 5 days, 480 mm Hg
  OUTCOME (neutral red viability): Non-Toxic
[1]; 3 hrs/day for 5 days, 760 mm Hg
  OUTCOME (neutral red viability): Non-Toxic
[1]; Continuous 12 hrs, 760 mm Hg
  OUTCOME (neutral red viability): Non-Toxic
[1]; Continuous 12 hrs, 1520 mm Hg
  OUTCOME (neutral red viability): Some Toxicity
[1]; Continuous 12 hrs, 1520 mm Hg, listed as 100% oxygen
  OUTCOME (neutral red viability): some toxicity
[1]; Continuous 12 hrs, 2280 mm Hg
  OUTCOME (neutral red viability): Some Toxicity
[1]; Continuous 12 hrs, 2280 mm Hg, listed as 100% oxygen
  OUTCOME (neutral red viability): some toxicity
[2]; 760 mm Hg
  OUTCOME (neutral red viability): Non-Toxic
[2]; 1520 mm Hg
  OUTCOME (neutral red viability): Some Toxicity
[2]; 2280 mm Hg
  OUTCOME (neutral red viability): Some Toxicity
[3]; 760 mm Hg
  OUTCOME (neutral red viability): Non-Toxic
[3]; 1520 mm Hg
  OUTCOME (neutral red viability): Non-Toxic
[3]; 2280 mm Hg
  OUTCOME (neutral red viability): Non-Toxic
[3]; up to 3 atmospheres
  adverse effect on developing HUSE products: not adversely affected
[4]; 760 mm Hg
  OUTCOME (neutral red viability): Non-Toxic
[4]; 1520 mm Hg
  OUTCOME (neutral red viability): Non-Toxic
[4]; 2280 mm Hg
  OUTCOME (neutral red viability): Non-Toxic
[4]; keratinocyte monolayer cultures, any pressure
  toxicity: No toxicity
[5]; 1 atm. Donor
  cell proliferation (cell numbers): Stimulation of cell proliferation
[5]; 2.5 atm. Donor
  cell proliferation (cell numbers): Stimulation of cell proliferation
[5]; 3 atm, donor
  cell proliferation (cell numbers): consistently non-stimulating and perhaps marginally anti-mitotic
[5]; oxygen pressures above about three atmospheres
  effect on fibroblast mitosis: antimitotic
[6]; 1 atm.
  cell number: consistently indistinguishable from the controls
[6]; 2 atm.
  cell number: not as mitotic as the latter
[6]; 2.5 atm.
  cell number: not as mitotic as the latter
[6]; 3 atm.
  cell number: a constant number of cells, well below the numbers obtained in other treatments
[7]
  cornification of the epidermal layer: particularly stimulated
[7]; 1 and 2 atm of 100% oxygen, vs untreated control
  epidermal thickness: progressive increase in epidermal thickness
[8]; 760 mm Hg
  OUTCOME (neutral red viability): Non-Toxic
[8]; 1520 mm Hg
  OUTCOME (neutral red viability): Non-Toxic
[8]; 2280 mm Hg
  OUTCOME (neutral red viability): Non-Toxic
[9]; 1 atmosphere, after two days of treatment
  collagen synthesis: elevated
[9]; five days vs two days of treatment, all pressure levels
  levels of collagen synthesis: higher after five days of treatment than after two days
[9]; with increased HBO
  collagen synthesis: inhibition of collagen synthesis
[10]; applied O2 pressure 1 atm. - 760 mm Hg, KGM
  MEASURED pO2 (Mean of three readings): 316 mm Hg
[10]; applied O2 pressure 2 atm. - 1520 mm Hg, KGM
  MEASURED pO2 (Mean of three readings): 800 mm Hg
[10]; applied O2 pressure 2.5 atm. - 1900 mm Hg, KGH
  MEASURED pO2 (Mean of three readings): 941 mm Hg
[10]; applied O2 pressure 3 atm. - 2280 mm Hg, KGM
  MEASURED pO2 (Mean of three readings): 1215 mm Hg
